Laboratory results as given in PubChem BioAssay AID602464 (Sanford-Burnham Center for Chemical Genomics, 2012).
Activity calls are given as the source filed them. Cut-off read from the data, not from the text of the source: active = IC50 below about 20 µM; inactive = the rest.

Tested on: Gli-responsive luciferase reporter cells, SUFU pathway antagonism
Assay: Gli-SUFU pathway antagonists, dose response, cell-based, luciferase luminescence, uHTS hits (AID 602464)

Row | SMILES | IC50
1 | O=C1N/C(=C\c2ccc(O)cc2)C(O)=C1C=NCc1ccccc1 | 4.73 µM
2 | Clc1ccc(-c2c[n+](Cc3ccc(Cl)cc3Cl)c3n2CCCCC3)cc1 | 5.31 µM
3 | CC(=O)c1cccc(NS(=O)(=O)c2ccc(-c3cnc(C4CC4)o3)cc2)c1 | 8.16 µM
4 | C/C(=N\Nc1ccc(Cl)nn1)c1ccccc1O | > 20 µM (inactive)
5 | Cc1ccc(S(=O)(=O)N2CCN(C(=O)c3ccc(S(=O)(=O)N4CCCC4)cc3)CC2)cc1 | > 20 µM (inactive)
6 | CC(C)C(=O)NC(=S)/C=C1/N(C)c2ccccc2C1(C)C | 4.76 µM
7 | C=CCNC(=S)/N=c1/ccccn1Cc1ccccc1 | 11.9 µM
8 | Cc1cc(/C=C2/SC(=S)N(c3ccc([N+](=O)[O-])cc3)C2=O)c(C)n1-c1cccnc1 | 0.663 µM
9 | C[N+]1=C(/C=C/Nc2ccccc2)C(C)(C)c2ccccc21 | 5.37 µM
10 | CCOP(=O)(CCP(=O)(OCC)OCC)OCC.C[CH2][Sn]([Cl])([Cl])[CH2]C | 6.24 µM
11 | Cc1sc2ncnc(NCC(O)c3ccc([N+](=O)[O-])cc3)c2c1C (centres undefined) | 4.75 µM
12 | COCCNc1nc2c(c(=O)n(C)c(=O)n2C)n1Cc1cccc(C(F)(F)F)c1 | 3.55 µM
13 | CC(=O)/C(=N\Nc1ccc(Cl)cc1Cl)Sc1cccc2cccnc12 | 1.12 µM
14 | CCn1c(C)nc2cc(-c3nnc(-c4c(-c5ccccc5)noc4C)o3)ccc21 | 7.36 µM
15 | CCCCSc1nc2sc3c(c2c(=O)n1-c1ccc(C)cc1)CCN(C)C3 | 17.9 µM
16 | CCCn1c2c(c(=N)c3c1CCC3)CCCC2 | 11 µM
17 | O=C(Cn1cnc2ccccc21)Nc1cccc(S(=O)(=O)N2CCCC2)c1 | 9.03 µM
18 | N=c1c2c(n(Cc3ccc(F)cc3)c3c1CCC3)CCCC2 | 3.82 µM
19 | Cc1ncoc1C(=O)NC1CCCc2c1cnn2-c1ccc(C(C)(C)C)cc1 (centres undefined) | 7.46 µM
20 | FC(F)Oc1ccc(-c2c[n+]3c(n2-c2ccccc2)CCCCC3)cc1 | 7.36 µM
21 | CCCCn1c(CN(C)Cc2ccccc2)nc2c1c(=O)n(C)c(=O)n2C | 6.85 µM
22 | COc1ccc(-c2nn(-c3ccccc3)cc2/C=N/NC(=O)c2ccc(Br)o2)cc1 | 5.42 µM
23 | CCNc1nc(CN2CCCCC2)nc2scc(-c3ccccc3)c12 | 5.95 µM
24 | CCCC(C)C(=O)Nc1nc(C)c(-c2csc(Nc3ccc(Cl)cc3)n2)s1 (centres undefined) | 6.48 µM
25 | COc1ccccc1CCNC(=O)C(=O)NCCC1CCCCN1S(=O)(=O)c1cccs1 (centres undefined) | 8.81 µM
26 | COc1nnc(-c2ccc(N3CCCCC3)c(N)c2)c2ccccc12 | 9.11 µM
27 | CCOC(=O)C1CCCN(S(=O)(=O)c2ccc(S(=O)(=O)N(CC)CC)cc2)C1 (centres undefined) | 3.29 µM

Row | SMILES | IC50
28 | CCCCCn1c(=N)n(CC(O)COc2ccccc2OC)c2ccccc21 (centres undefined) | 8.43 µM
29 | CC[N+](C)(CC)CCC(c1ccccc1)C1CCCCC1 (centres undefined) | 13.1 µM
30 | O=C(Nc1cccc(C(F)(F)F)c1)C1CCN(S(=O)(=O)c2ccc(N3CCCC3=O)cc2)CC1 | 5.45 µM
31 | Cc1sc2ncnc(NCC(C)(C)N3CCOCC3)c2c1C | 3.85 µM
32 | COc1ccc(NS(=O)(=O)c2ccc(NC(C)=O)cc2)cc1OC | 7.92 µM
33 | C=C(C)CSc1nc2sc3c(c2c(=O)n1C1CCCCC1)CCN(C)C3 | 8.67 µM
34 | COc1ccc(Cn2c(-c3ccc(Cl)cc3)c[n+]3ccccc23)cc1 | 7.28 µM
35 | O=c1c2ccccc2nc2n1C(CSCc1cccc(C(F)(F)F)c1)CS2 (centres undefined) | 3.92 µM
36 | O=C(NC(c1cccnc1)C(F)(F)F)c1cc(COc2ccc3c(c2)CCCC3)on1 (centres undefined) | 10.6 µM
37 | Cn1c(=O)c2c(nc(NCCOc3ccc(C(C)(C)C)cc3)n2C)n(C)c1=O | > 20 µM (inactive)
38 | CCCCN(C(C)=O)c1ccc2c(c1)C1CC2CCN1C(=O)OCc1ccccc1 (centres undefined) | 6.13 µM
39 | Cn1nc(CC(=O)NCc2ccc(C(F)(F)F)cc2)c2ccccc2c1=O | 6.65 µM
40 | COc1cc(C(=O)NC2CCN(C)CC2)ccc1Nc1ncc2c(n1)N(CCc1ccccc1)CCC(=O)N2C | 4.62 µM
41 | CC(C)CCOC(=O)C[N+](C)(C)CCOC1CC2CCC1(C)C2(C)C (centres undefined) | 5.18 µM
42 | Cc1ccc2c(c1)S/C(=C/c1ccc[n+](C)c1)N2CCO | 15.2 µM
43 | Cc1c(CCOC(=O)C23CC4CC(CC(C)(C4)C2)C3)sc[n+]1Cc1ccccc1 | > 20 µM (inactive)
44 | Cc1cccc(C)c1NC(=S)N(CCN1CCCCCC1)Cc1ccco1 | > 20 µM (inactive)
45 | CC1Cc2cc(S(=O)(=O)N3CCC(C(=O)N4CCN(c5ccccc5F)CC4)CC3)ccc2N1C(=O)C1CC1 (centres undefined) | 4.27 µM
46 | O=S(=O)(NCc1ccncc1)c1ccc(S(=O)(=O)NCC2CCCO2)cc1 (centres undefined) | 11.5 µM
47 | c1ccc(-c2cn(-c3ccccc3)c3[n+]2CCS3)cc1 | 6.57 µM
48 | Cc1cccnc1CN1CCN(C(=O)c2cc(COc3ccc4ncccc4c3)on2)CC1 | 5.18 µM
49 | O=[N+]([O-])c1ccc(N2CCN(C(=S)NCc3ccc(Cl)cc3)CC2)cc1 | 11.9 µM
50 | NC(=O)CC(NC(=O)c1ccccc1)c1ccc(N2CCCCCC2)c([N+](=O)[O-])c1 (centres undefined) | > 20 µM (inactive)
51 | CCCCCCCOc1ccc(OC(=O)c2ccncc2)cc1 | 0.954 µM
52 | COc1ccc(-n2cc(-c3ccc(OC(F)F)cc3)[n+]3c2CCCCC3)cc1 | 2.29 µM
53 | COc1ccc(CN2CCC(C(=O)Nc3ccc(Oc4cccnc4)cc3)CC2)c(C)c1C | 12.6 µM
54 | O=C(C[n+]1cc(-c2ccccc2)n2c1CCCCC2)c1ccc(Cl)cc1 | > 20 µM (inactive)
